{
  "source": "paper PMC7274485",
  "about": "“A symbiotic bacterium of shipworms produces a compound with broad spectrum anti-apicomplexan activity” (PLoS Pathogens, 2020)",
  "key": {"Theileria equi": {"system": "Theileria equi", "test": "Theileria equi 72 hr in vitro parasite growth inhibition assay", "assay_type": "cell-based", "procedure": "The effect of trtE on proliferation of T. equi was evaluated in a 72 hr in vitro parasite growth inhibition assay performed as previously described using the USDA Florida strain of T. equi.\nA. Bovine turbinate cells infected with luciferase expressing Sarcocystis neurona merozoites were treated with trtE for 24 hours and parasite growth evaluated by luciferase expression. […] B. Theileria equi-infected erythrocytes were incubated with trtE or DMSO vehicle control and proliferation was measured after 72 hours by SYBR green incorporation. Percent proliferation was calculated relative to DMSO treated controls. […] (DOCX) Click here for additional data file."}, "Cryptosporidium parvum": {"system": "Cryptosporidium parvum", "test": "Nanoluciferase-expressing C. parvum inhibitor response assay in HCT-8 cells", "assay_type": "cell-based", "conditions": "HCT-8 cells infected 24 hours, read 48 hours post-treatment, read-out: EC50 against C. parvum", "procedure": "We had postulated that secondary metabolites generated by symbiotic bacteria of invertebrates might include compounds that target gregarines, an ancient group of apicomplexans found in most, and perhaps all, invertebrates. The only gregarines known to infect mammals are Cryptosporidium species, gastrointestinal parasites that cause diarrheal disease in humans and other mammals. HCT8 cells were infected with luciferase-expressing Cryptosporidium parvum parasites for 24 hours, then two-fold dilutions of trtE added to the infected cells. 48 hours after the addition of trtE, parasite growth was quantified by luciferase expression. […] To examine the morphology of trtE treated C. parvum parasites, HCT8 cells were infected with C. parvum oocysts for 8 hours. Extracellular parasites were washed off and medium containing 60 nM trtE added to the infected cells. After 12 hours of treatment, infected cells were fixed and processed for IFAs.\nC. parvum oocysts expressing nanoluciferase (nLuc) were obtained from the Cryptosporidium Production Laboratory at the University of Arizona and inhibitor response assays were conducted as previously described."}, "C. parvum": {"system": "C. parvum", "test": "Immunofluorescence assay (anti-gp15) of C. parvum-infected HCT8 cells", "assay_type": "cell-based, Cryptosporidium parvum", "conditions": "60 nM trtE, 12 hours, HCT8 cells infected 8 hours", "procedure": "We had postulated that secondary metabolites generated by symbiotic bacteria of invertebrates might include compounds that target gregarines, an ancient group of apicomplexans found in most, and perhaps all, invertebrates. The only gregarines known to infect mammals are Cryptosporidium species, gastrointestinal parasites that cause diarrheal disease in humans and other mammals. HCT8 cells were infected with luciferase-expressing Cryptosporidium parvum parasites for 24 hours, then two-fold dilutions of trtE added to the infected cells. 48 hours after the addition of trtE, parasite growth was quantified by luciferase expression. […]\nFor all IFAs, the investigator reading the slides and collecting images was blind to the sample treatment. […] 24 hours post treatment, infected cells were fixed with methanol, and parasites detected with rabbit anti-SAG1 antibody for T. gondii or rabbit anti-gp15 for C. parvum as we have described previously. […] This CE11 line is transiently transfected with a plasmid that expresses nanoluciferase from a B. divergens promoter and green fluorescence protein-blasticidin (gfp-bsd) from the selection cassette. […] Mean background levels were determined for individual images by assaying areas lacking cells, and the values were subtracted, whereas maximum fluorescent values were individually set as the upper limit. […]"}},
  "note": "“Also recorded” adds a separate entry of the source. Read-outs that look alike come from different tables or passages of the source.",
  "data": [
    {"compound": "CC1CCC=CC=CCCC(O)CC(=O)CC2CCC(C)C3(O2)O[B-]24OC(C(=O)O1)C1(OC(CCC1C)CC(=O)CC(O)CCC=CC=CCCC(C)OC(=O)C3O2)O4", "note": "(stereo not shown) [trtE, tartrolon E]", "values": [
      {"measurement": "EC50", "setting": "Theileria equi; Erythrocyte, infected erythrocytes, 72 hours, read-out: EC50 against T. equi", "result": 0.391, "unit": "nM"},
      {"measurement": "EC50", "setting": "Theileria equi; Table 1, rounded, read-out: EC50 against T. equi (Table 1)", "result": 0.4, "unit": "nM"},
      {"measurement": "EC50", "setting": "Cryptosporidium parvum", "result": 3.85, "unit": "nM"},
      {"measurement": "Morphology of trtE treated C. parvum (IFA)", "setting": "C. parvum", "result": "no visible intact merozoites; also recorded: few discernable parasites"}
    ]}
  ]
}
